Experimental data from patent US4335249A, “Herbicidal diphenyl ethers, sulfides, sulfoxides and sulfones” (Rohm and Haas Company, priority 1976, dated 1982).

Tests used:
Assay type in all cases: in vivo
[1] = tested on: yellow nutsedge (Cyperus esculentus); test: Postemergence herbicidal activity, yellow nutsedge; conditions: Cyperus, post-emergence, 336 h; for pest or weed control at 4483.4 g/ha: 4 lb/A
In short: (§1)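 Compound in acetone/water sprayed on soil flats at 50 gal/acre carrier volume, at rates given in lb/A. Preemergence: applied right after planting; postemergence: applied two weeks after germination. Scored about two weeks later as average percent of plants killed.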

[2] = tested on: marigold (Tagetes spp.); test: Preemergence herbicidal activity, marigold; conditions: pre-emergence, 336 h
In short: as §1

[3] = tested on: barnyardgrass (Echinochloa crusgalli); test: Preemergence herbicidal activity, barnyardgrass; conditions: Echinochloa crus-galli, pre-emergence, 336 h, Pre
In short: (§2)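 Acetone solution diluted w/ water; spray, carrier 50 gal/acre equivalent; rate in lb/A. Pre: flats sprayed right after sowing. Post: sprayed 2 wk after germination. Weed control scored.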

[4] = tested on: yellow nutsedge (Cyperus esculentus); test: Preemergence herbicidal activity, yellow nutsedge; conditions: Cyperus, pre-emergence, 336 h
In short: as §1

[5] = tested on: foxtail (Setaria spp.); test: Preemergence herbicidal activity, foxtail; conditions: Setaria, pre-emergence, 336 h, Pre
In short: as §1

[6] = tested on: foxtail (Setaria spp.); test: Postemergence herbicidal activity, foxtail; conditions: Setaria, post-emergence, 336 h, Post; for pest or weed control at 4483.4 g/ha: 4 lb/A
In short: as §1

[7] = tested on: velvetleaf (Abutilon theophrasti); test: Postemergence herbicidal activity, velvetleaf; conditions: Abutilon theophrasti, post-emergence, 336 h; for pest or weed control at 4483.4 g/ha: 4 lb/A
In short: as §2

[8] = tested on: marigold (Tagetes spp.); test: Postemergence herbicidal activity, marigold; conditions: post-emergence, 336 h; for pest or weed control at 4483.4 g/ha: 4 lb/A
In short: as §1

[9] = tested on: tomato (Lycopersicon esculentum); test: Postemergence herbicidal activity, tomato; conditions: Solanum lycopersicum, post-emergence, 336 h, Post; for pest or weed control at 4483.4 g/ha: 4 lb/A
In short: as §1

[10] = tested on: velvetleaf (Abutilon theophrasti); test: Preemergence herbicidal activity, velvetleaf; conditions: Abutilon theophrasti, pre-emergence, 336 h, Pre
In short: as §1

[11] = tested on: barnyardgrass (Echinochloa crusgalli); test: Postemergence herbicidal activity, barnyardgrass; conditions: Echinochloa crus-galli, post-emergence, 336 h, Post; for pest or weed control at 4483.4 g/ha: 4 lb/A
In short: as §2

[12] = tested on: morningglory (Ipomoca spp.); test: Postemergence herbicidal activity, morningglory; conditions: Ipomoea, post-emergence, 336 h; for pest or weed control at 4483.4 g/ha: 4 lb/A
In short: as §1

[13] = tested on: downybrome (Bromus tectorum); test: Preemergence herbicidal activity, downybrome; conditions: Bromus tectorum, pre-emergence, 336 h, Pre
In short: as §1

[14] = tested on: downybrome (Bromus tectorum); test: Postemergence herbicidal activity, downybrome; conditions: Bromus tectorum, post-emergence, 336 h, Post; for pest or weed control at 4483.4 g/ha: 4 lb/A
In short: as §1

[15] = tested on: cocklebur (Xanthium pensylvanicum); test: Preemergence herbicidal activity, cocklebur; conditions: Xanthium strumarium, pre-emergence, 336 h
In short: as §1

[16] = tested on: morningglory (Ipomoca spp.); test: Preemergence herbicidal activity, morningglory; conditions: Ipomoea, pre-emergence, 336 h
In short: as §1

[17] = tested on: wild oats (Avena fatua); test: Postemergence herbicidal activity, wild oats; conditions: Avena fatua, post-emergence, 336 h, Post, read-out: % control, Wild oat; for pest or weed control at 4483.4 g/ha: 4 lb/A
In short: as §1

[18] = tested on: tomato (Lycopersicon esculentum); test: Preemergence herbicidal activity, tomato; conditions: Solanum lycopersicum, pre-emergence, 336 h, Pre
In short: as §1

[19] = tested on: wild oats (Avena fatua); test: Preemergence herbicidal activity, wild oats; conditions: Avena fatua, pre-emergence, 336 h, Pre, read-out: % control, Wild oat
In short: as §1

[20] = tested on: cocklebur (Xanthium pensylvanicum); test: Postemergence herbicidal activity, cocklebur; conditions: Xanthium strumarium, post-emergence, 336 h; for pest or weed control at 4483.4 g/ha: 4 lb/A
In short: as §1

With `CCOC(=O)C(C)Oc1ccc(Sc2ccccc2C(F)(F)F)cc1` (stereo not drawn) [Example 44, ethyl 2-(4-(2-trifluoromethylphenylthio)phenoxy) propionate] the pest or weed control at 4483.4 g/ha [1] was 0%, the pest or weed control at 8966.8 g/ha ([2]; 8 lb/A) was 0% and the pest or weed control at 8966.8 g/ha ([3]; 8 lb/A) was 80%. For the same compound, the pest or weed control at 8966.8 g/ha ([4]; 8 lb/A) was 0%, the pest or weed control at 8966.8 g/ha ([5]; 8 lb/A) was 0% and the pest or weed control at 4483.4 g/ha [6] was 20%. For the same compound, the pest or weed control at 4483.4 g/ha [7] was 20%, the pest or weed control at 4483.4 g/ha [8] was 0% and the pest or weed control at 4483.4 g/ha [9] was 0%. The pest or weed control at 8966.8 g/ha ([10]; 8 lb/A) was 30%, the pest or weed control at 4483.4 g/ha [11] was 0% and the pest or weed control at 4483.4 g/ha [12] was 0%. For the same compound, the pest or weed control at 8966.8 g/ha ([13]; 8 lb/A) was 60%, the pest or weed control at 4483.4 g/ha [14] was 0% and the pest or weed control at 8966.8 g/ha ([15]; 8 lb/A) was 0%. For the same compound, the pest or weed control at 8966.8 g/ha ([16]; 8 lb/A) was 0%, the pest or weed control at 4483.4 g/ha [17] was 0% and the pest or weed control at 8966.8 g/ha ([18]; 8 lb/A) was 0%. The pest or weed control at 8966.8 g/ha ([19]; 8 lb/A) was 0% and the pest or weed control at 4483.4 g/ha [20] was 0%.
`CCOC(=O)C(C)Oc1ccc([S+]([O-])c2ccc(C(F)(F)F)cc2)cc1` (stereo not drawn) [Example 51] showed a pest or weed control at 4483.4 g/ha [1] of 0%, a pest or weed control at 4483.4 g/ha ([2]; 4 lb/A) of 0% and a pest or weed control at 4483.4 g/ha ([3]; 4 lb/A) of 0%. For the same compound, the pest or weed control at 4483.4 g/ha ([4]; 4 lb/A) was 0%, the pest or weed control at 4483.4 g/ha ([5]; 4 lb/A) was 0% and the pest or weed control at 4483.4 g/ha [6] was 0%. The pest or weed control at 4483.4 g/ha [7] was 0%, the pest or weed control at 4483.4 g/ha [8] was 0% and the pest or weed control at 4483.4 g/ha [9] was 0%. The pest or weed control at 4483.4 g/ha ([10]; 4 lb/A) was 0%, the pest or weed control at 4483.4 g/ha [11] was 20% and the pest or weed control at 4483.4 g/ha [12] was 0%. For the same compound, the pest or weed control at 4483.4 g/ha ([13]; 4 lb/A) was 0%, the pest or weed control at 4483.4 g/ha [14] was 0% and the pest or weed control at 4483.4 g/ha ([15]; 4 lb/A) was 0%. It also gave a pest or weed control at 4483.4 g/ha ([16]; 4 lb/A) of 0%, a pest or weed control at 4483.4 g/ha [17] of 20% and a pest or weed control at 4483.4 g/ha ([18]; 4 lb/A) of 0%. For the same compound, the pest or weed control at 4483.4 g/ha ([19]; 4 lb/A) was 0% and the pest or weed control at 4483.4 g/ha [20] was 0%.
Work on `CCOC(=O)C(C)Oc1ccc(Oc2ccc(C(F)(F)F)cc2)cc1` (stereo not drawn) [Example 27] yielded a pest or weed control at 2241.7 g/ha ([1]; 2 lb/A) of 0%, a pest or weed control at 2241.7 g/ha ([2]; 2 lb/A) of 0% and a pest or weed control at 2241.7 g/ha ([3]; 2 lb/A) of 100%. The pest or weed control at 2241.7 g/ha ([4]; 2 lb/A) was 0%, the pest or weed control at 2241.7 g/ha ([5]; 2 lb/A) was 100% and the pest or weed control at 2241.7 g/ha ([6]; 2 lb/A) was 100%. It also gave a pest or weed control at 2241.7 g/ha ([7]; 2 lb/A) of 40%, a pest or weed control at 2241.7 g/ha ([8]; 2 lb/A) of 100% and a pest or weed control at 2241.7 g/ha ([9]; 2 lb/A) of 60%. For the same compound, the pest or weed control at 2241.7 g/ha ([10]; 2 lb/A) was 0%, the pest or weed control at 2241.7 g/ha ([11]; 2 lb/A) was 100% and the pest or weed control at 2241.7 g/ha ([12]; 2 lb/A) was 95%. For the same compound, the pest or weed control at 2241.7 g/ha ([13]; 2 lb/A) was 99%, the pest or weed control at 2241.7 g/ha ([14]; 2 lb/A) was 100% and the pest or weed control at 2241.7 g/ha ([15]; 2 lb/A) was 0%. It also gave a pest or weed control at 2241.7 g/ha ([16]; 2 lb/A) of 0%, a pest or weed control at 2241.7 g/ha ([17]; 2 lb/A) of 100% and a pest or weed control at 2241.7 g/ha ([18]; 2 lb/A) of 0%. It also gave a pest or weed control at 2241.7 g/ha ([19]; 2 lb/A) of 99% and a pest or weed control at 2241.7 g/ha ([20]; 2 lb/A) of 70%.
